Where a SMILES comes first, the peptide text is derived from it. The star is where a group is joined. Cbz = O=C(OCc1ccccc1)*; CH2F = FC*
What was measured:
caspase-3 = experiment: Caspase-3 activity (colorimetric, Ac-DEVD-pNA cleavage) after hypoxia; type: cell-based, rat; conditions: hypoxia 24 hours; 100 μM of agmatine or 50 μM of Z-VAD-FMK
Experimental: The RGC-5 cell line, which is a RGC line developed from post-natal Sprague-Dawley rats, was grown in modified Dulbecco's Modified Eagle's Medium (DMEM; Gibco) supplemented with 10% of heat inactivated fetal bovine serum (Gibco) and 100 U/mL of penicillin and 100 μg/mL of streptomycin (Gibco). The cells were passaged every 2 to 3 days, and the cultures incubated at 37° C. in 5% of CO2 and air. […] For all experiments, cells were used at an 80% confluence. Cultures were transferred into a closed hypoxic chamber (Form a Scientific Co.) in which oxygen level (5% of O2, 5% of CO2, 90% of N2) and temperature (37° C.) were controlled. After washing twice with deoxygenated serum-free DMEM, cells were maintained in the hypoxic chamber. Control cells were not exposed to hypoxia. Agmatine or BDNF were added to the culture medium at the start of injury as indicated. Caspase-3 activity was measured using the CaspACE™ colorimetric assay system (Promega, Cat no. G7220) according to the manufacturer's instructions. Briefly, cells were harvested and resuspended in cell lysis buffer (10^8 cells/mL). […] After incubating at 37° C. for 4 hours, absorbance was measured using a microplate reader at 405 nm. Absorbance of each sample was determined by subtraction of the mean absorbance of the blank from that of each sample.

RGC-5 = experiment: LDH assay, TNF-α-induced cell death; type: cell-based, rat
Experimental: The RGC-5 cell line, which is an RGC line developed from post-natal Sprague-Dawley rats, was grown in modified DMEM (Gibco) supplemented with 10% of heat inactivated fetal bovine serum (Gibco) and 100 U/mL of penicillin and 100 μg/mL of streptomycin (Gibco). The cells were passaged every 2 to 3 days and incubated at 37° C. in 5% of CO2 and air. At cultivation, the cells had the same morphology. For all experiments, cells were used at 80% of confluence.
After washing twice with PBS, cells were cultured in serum-free DMEM and treated with either 10 or 50 ng/mL of recombinant rat TNF-α (Chemicon) for up to 48 hours. The control cells were not exposed to TNF-α. 100 μM of agmatine was added to the culture medium at the start of injury as indicated.
Cell viability was quantified by measuring the amounts of LDH released from the injured cells after TNF-α administration. LDH release is expressed as a value relative to the value of 100, which is the maximum LDH release that occurs after freezing each culture at −70° C. overnight and then rapidly thawing, thus inducing nearly complete cell damage. All experiments were performed in at least quadruplicate, and repeated at least eight times using cell cultures derived from different platings.

hypoxia-induced caspase-3 activity (caspase-3)	Compound	LDH release (RGC-5; 10 ng/mL of TNF-α alone, 24 hours) [%]	LDH release (RGC-5; 10 ng/mL of TNF-α alone, 48 hours) [%]	LDH release (RGC-5; 50 ng/mL of TNF-α alone, 24 hours) [%]	LDH release (RGC-5; 50 ng/mL of TNF-α alone, 48 hours) [%]
equally suppressed	COC(=O)C[C@H](NC(=O)[C@H](C)NC(=O)[C@@H](NC(=O)OCc1ccccc1)C(C)C)C(=O)CF [Z-VAD-FMK, reference compound] (Cbz-Val-Ala-Asp(OMe)-CH2F)	–	–	–	–
–	TNF-α	7.04±3.26	10.16±1.77	13.41±6.20	17.00±1.92
